# Assay results: patent publication US10781224B2, “Bis(oxymethyl)phosphinic acid and biogenic metal salts thereof as regulators of plant growth and development” (priority 2016, dated 2020)
# Columns and labels:
# Format in all cases: in vivo
# [1] = test system: winter wheat (Vershin variety); assay: Winter wheat seed treatment with BHMPA salts: germination energy and germination rate
# Description: (§1) Control—Soaking Seeds in Water;
# (§2) Experimental versions—soaking seeds in BHMPA solutions and solutions of BHMPA Ca, Mg, Na, Co, Mn, Cu, and Zn salts at 1·10^−6-1·10^−12% concentrations (doses). The studies were conducted in laboratory in Petri dishes; seed bed—two layers of filter paper. 50 seeds soaked in water (control) and in the solutions of the tested compounds (experimental) were placed into each dish. Wheat, corn, and rice seeds were exposed for one hour.
# (§3) Analysis was conducted according to the government standards GOST 12038-84 “Crop seeds. Technical conditions for determining the germination energy and germination rate”, GOST 12044-93 “Crop seeds. Methods for determining disease contamination.”
# (§4) Seed germination energy and rate were calculated in percent as an arithmetic mean of the four experimental results (germination energy on the 4th day, wheat germination on the 8th day, rice and corn germination—on the 7th day). Germination was determined based on the germinating power indicators (length of the roots and sprouts and their wet and dry mass per 100 shoots).
# (§5) The effect of pre-sowing seed treatment with the claimed BHMPA salts of biogenic metals was studied on winter wheat (Vershin variety), corn (Krasnodar 385 MV variety), and rice (Diamant variety).
# [2] = test system: winter wheat (Vershin variety); assay: Winter wheat seed treatment with BHMPA salts: germinating power (length and mass of roots and sprouts)
# Description: as §2, §4, §5
# The above data describe the seed viability only at the initial stage of germination, while the germination ability at the later stage of germination is defined by the initial germinating power. The method for the determination of the germinating power comprises measuring the height of the sprouts and primary roots, as well as the biomass and the dry mass thereof per 100 seedlings. [M. A. Kartuzova. Initial Germinating Power as Method of Biological Assessment of Seed Quality. Selection and Seed Farming, #2, 1953].
# [3] = test system: corn (Krasnodar 385 MV variety); assay: Corn seed treatment with BHMPA salts: germination energy and germination rate
# Description: as §1, §2, §3, §4, §5
# [4] = winter wheat Vershin, 1·10^−6% solution
# [5] = winter wheat Vershin, 1·10^−7% solution
# [6] = winter wheat Vershin, 1·10^−8% solution
# [7] = winter wheat Vershin, 1·10^−9% solution
# [8] = winter wheat Vershin, 1·10^−10% solution
# [9] = winter wheat Vershin, 1·10^−11% solution
# [10] = winter wheat Vershin, 1·10^−12% solution
# [11] = winter wheat, comparative study vs Melaphen, 1·10^−10% solution
# [12] = comparative study, 1·10^−10% solution
# [13] = comparative study vs Melaphen, 1·10^−7% solution
structure (smiles),measurement,setting,value
"O.O.O=P([O-])(CO)CO.O=P([O-])(CO)CO.[Co+2] [Co-salt, Cobalt BHMPA Salt]",Germination energy,[1]; [4],89.2%
same,Germination rate,[1]; [4],93.0%
same,Germination energy,[1]; [5],91.4%
same,Germination rate,[1]; [5],94.0%
same,Germination energy,[1]; [6],92.8%
same,Germination rate,[1]; [6],96.0%
same,Germination energy,[1]; [7],94.3%
same,Germination rate,[1]; [7],97.3%
same,Germination energy,[1]; [8],95.6%
same,Germination rate,[1]; [8],98.7%
same,Germination energy,[1]; [9],94.7%
same,Germination rate,[1]; [9],97.3%
same,Germination energy,[1]; [10],92.0%
same,Germination rate,[1]; [10],94.7%
same,Germination energy,[1]; [11],93.7%
same,Germination rate,[1]; [11],97.3%
same,"Length, root",[2]; 1·10^−6% solution,6.0 cm
same,"Length, root, + % to control",[2]; 1·10^−6% solution,−5%
same,"Length, sprout",[2]; 1·10^−6% solution,5.1 cm
same,"Length, sprout, + % to control",[2]; 1·10^−6% solution,−4%
same,"Mass, dry, root",[2]; 1·10^−6% solution,0.43 g/100 plantlings
same,"Mass, dry, root, + % to control",[2]; 1·10^−6% solution,−6.5%
same,"Mass, dry, sprout",[2]; 1·10^−6% solution,0.41 g/100 plantlings
same,"Mass, dry, sprout, + % to control",[2]; 1·10^−6% solution,−9%
same,"Mass, wet, root",[2]; 1·10^−6% solution,2.99 g/100 plantlings
same,"Mass, wet, root, + % to control",[2]; 1·10^−6% solution,3.5%
same,"Mass, wet, sprout",[2]; 1·10^−6% solution,3.30 g/100 plantlings
same,"Mass, wet, sprout, + % to control",[2]; 1·10^−6% solution,−3.5%
same,"Length, root",[2]; 1·10^−7% solution,6.3 cm
same,"Length, root, + % to control",[2]; 1·10^−7% solution,0%
same,"Length, sprout",[2]; 1·10^−7% solution,5.4 cm
same,"Length, sprout, + % to control",[2]; 1·10^−7% solution,2%
same,"Mass, dry, root",[2]; 1·10^−7% solution,0.50 g/100 plantlings
same,"Mass, dry, root, + % to control",[2]; 1·10^−7% solution,9%
same,"Mass, dry, sprout",[2]; 1·10^−7% solution,0.45 g/100 plantlings
same,"Mass, dry, sprout, + % to control",[2]; 1·10^−7% solution,0%
same,"Mass, wet, root",[2]; 1·10^−7% solution,3.06 g/100 plantlings
same,"Mass, wet, root, + % to control",[2]; 1·10^−7% solution,6%
same,"Mass, wet, sprout",[2]; 1·10^−7% solution,3.47 g/100 plantlings
same,"Mass, wet, sprout, + % to control",[2]; 1·10^−7% solution,1.5%
same,"Length, root",[2]; 1·10^−8% solution,6.4 cm
same,"Length, root, + % to control",[2]; 1·10^−8% solution,1.6%
same,"Length, sprout",[2]; 1·10^−8% solution,5.5 cm
same,"Length, sprout, + % to control",[2]; 1·10^−8% solution,4%
same,"Mass, dry, root",[2]; 1·10^−8% solution,0.54 g/100 plantlings
same,"Mass, dry, root, + % to control",[2]; 1·10^−8% solution,17%
same,"Mass, dry, sprout",[2]; 1·10^−8% solution,0.53 g/100 plantlings
same,"Mass, dry, sprout, + % to control",[2]; 1·10^−8% solution,18%
same,"Mass, wet, root",[2]; 1·10^−8% solution,3.29 g/100 plantlings
same,"Mass, wet, root, + % to control",[2]; 1·10^−8% solution,14%
same,"Mass, wet, sprout",[2]; 1·10^−8% solution,3.74 g/100 plantlings
same,"Mass, wet, sprout, + % to control",[2]; 1·10^−8% solution,9%
same,"Length, root",[2]; 1·10^−9% solution,6.5 cm
same,"Length, root, + % to control",[2]; 1·10^−9% solution,3%
same,"Length, sprout",[2]; 1·10^−9% solution,5.7 cm
same,"Length, sprout, + % to control",[2]; 1·10^−9% solution,7.5%
same,"Mass, dry, root",[2]; 1·10^−9% solution,0.55 g/100 plantlings
same,"Mass, dry, root, + % to control",[2]; 1·10^−9% solution,19.5%
same,"Mass, dry, sprout",[2]; 1·10^−9% solution,0.57 g/100 plantlings
same,"Mass, dry, sprout, + % to control",[2]; 1·10^−9% solution,27%
same,"Mass, wet, root",[2]; 1·10^−9% solution,3.35 g/100 plantlings
same,"Mass, wet, root, + % to control",[2]; 1·10^−9% solution,16%
same,"Mass, wet, sprout",[2]; 1·10^−9% solution,4.04 g/100 plantlings
same,"Mass, wet, sprout, + % to control",[2]; 1·10^−9% solution,18%
same,"Length, root",[2]; 1·10^−10% solution,6.6 cm
same,"Length, root, + % to control",[2]; 1·10^−10% solution,5%
same,"Length, sprout",[2]; 1·10^−10% solution,6.1 cm
same,"Length, sprout, + % to control",[2]; 1·10^−10% solution,15%
same,"Mass, dry, root",[2]; 1·10^−10% solution,0.56 g/100 plantlings
same,"Mass, dry, root, + % to control",[2]; 1·10^−10% solution,22%
same,"Mass, dry, sprout",[2]; 1·10^−10% solution,0.67 g/100 plantlings
same,"Mass, dry, sprout, + % to control",[2]; 1·10^−10% solution,49%
same,"Mass, wet, root",[2]; 1·10^−10% solution,3.57 g/100 plantlings
same,"Mass, wet, root, + % to control",[2]; 1·10^−10% solution,23.5%
same,"Mass, wet, sprout",[2]; 1·10^−10% solution,4.18 g/100 plantlings
same,"Mass, wet, sprout, + % to control",[2]; 1·10^−10% solution,22%
same,"Length, root",[2]; 1·10^−11% solution,6.5 cm
same,"Length, root, + % to control",[2]; 1·10^−11% solution,3%
same,"Length, sprout",[2]; 1·10^−11% solution,5.9 cm
same,"Length, sprout, + % to control",[2]; 1·10^−11% solution,11%
same,"Mass, dry, root",[2]; 1·10^−11% solution,0.54 g/100 plantlings
same,"Mass, dry, root, + % to control",[2]; 1·10^−11% solution,17%
same,"Mass, dry, sprout",[2]; 1·10^−11% solution,0.56 g/100 plantlings
same,"Mass, dry, sprout, + % to control",[2]; 1·10^−11% solution,24%
same,"Mass, wet, root",[2]; 1·10^−11% solution,3.33 g/100 plantlings
same,"Mass, wet, root, + % to control",[2]; 1·10^−11% solution,15%
same,"Mass, wet, sprout",[2]; 1·10^−11% solution,3.78 g/100 plantlings
same,"Mass, wet, sprout, + % to control",[2]; 1·10^−11% solution,10.5%
same,"Length, root",[2]; 1·10^−12% solution,6.2 cm
same,"Length, root, + % to control",[2]; 1·10^−12% solution,−1.5%
same,"Length, sprout",[2]; 1·10^−12% solution,5.4 cm
same,"Length, sprout, + % to control",[2]; 1·10^−12% solution,2%
same,"Mass, dry, root",[2]; 1·10^−12% solution,0.52 g/100 plantlings
same,"Mass, dry, root, + % to control",[2]; 1·10^−12% solution,13%
same,"Mass, dry, sprout",[2]; 1·10^−12% solution,0.48 g/100 plantlings
same,"Mass, dry, sprout, + % to control",[2]; 1·10^−12% solution,7%
same,"Mass, wet, root",[2]; 1·10^−12% solution,3.06 g/100 plantlings
same,"Mass, wet, root, + % to control",[2]; 1·10^−12% solution,6%
same,"Mass, wet, sprout",[2]; 1·10^−12% solution,3.49 g/100 plantlings
same,"Mass, wet, sprout, + % to control",[2]; 1·10^−12% solution,2%
same,"Length, root",[2]; [12],10.4 cm
same,"Length, root, + % to control",[2]; [12],20%
same,"Length, sprout",[2]; [12],7.4 cm
same,"Length, sprout, + % to control",[2]; [12],19%
same,"Mass, dry, root",[2]; [12],0.68 g/100 plantlings
same,"Mass, dry, root, + % to control",[2]; [12],10%
same,"Mass, dry, sprout",[2]; [12],0.55 g/100 plantlings
same,"Mass, dry, sprout, + % to control",[2]; [12],8%
same,"Mass, wet, root",[2]; [12],5.97 g/100 plantlings
same,"Mass, wet, root, + % to control",[2]; [12],65%
same,"Mass, wet, sprout",[2]; [12],5.16 g/100 plantlings
same,"Mass, wet, sprout, + % to control",[2]; [12],30%
same,Germination energy,[3]; 1·10^−6% solution,80.0%
same,Germination rate,[3]; 1·10^−6% solution,82.2%
same,Germination energy,[3]; 1·10^−7% solution,84.3%
same,Germination rate,[3]; 1·10^−7% solution,90.0%
same,Germination rate,"[3]; 1·10^−7% solution, listed as Co",86.7%
same,Germination energy,[3]; 1·10^−8% solution,82.0%
same,Germination rate,[3]; 1·10^−8% solution,84.7%
same,Germination energy,[3]; 1·10^−9% solution,80.7%
same,Germination rate,[3]; 1·10^−9% solution,83.0%
same,Germination energy,[3]; 1·10^−10% solution,79.2%
same,Germination rate,[3]; 1·10^−10% solution,81.7%
same,Germination energy,[3]; 1·10^−11% solution,78.0%
same,Germination rate,[3]; 1·10^−11% solution,80.8%
same,Germination energy,[3]; 1·10^−12% solution,76.8%
same,Germination rate,[3]; 1·10^−12% solution,79.2%
same,Germination energy,[3]; [13],87.0%
same,Germination rate,[3]; [13],96.7%
